Experimental data from patent US9427415B2, “Methods and compositions for modifying sensorial perception” (The Procter & Gamble Company, priority 2014, dated 2016).
Where two headings read alike, the source gives them in different places.

Columns and labels:
human TRPA1 = target: T1, human TRPA1 (Homo sapiens, UniProt O75762, K186N/R3C/R58T); experiment: Intracellular calcium (Fluo-4, FLIPR) activation of TRPA1 cells by GRAS compounds; type: cell-based; details: relative to AITC 30 μM; for activation at 1000 µM / A1 activation, % of agonist value: 1 mM; for activation at 1000 µM / activation at 100 µM: read-out: A1 activation, % of agonist value;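 for all read-outs here: TRPA1-expressing cells, fluorescence read on a FLIPR Tetra (ex 488 nm, em 514 nm) every 2 s for 10 min after compound addition, baseline subtracted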
T1 construct: expressed in transfected cells; pcDNA3 control cells

TRPA1V1 = experiment: Intracellular calcium (Fluo-4, FLIPR) activation of TRPA1V1 cells (co-expressing TRPA1 and TRPV1) by GRAS compounds; type: cell-based, human; details: relative to AITC 30 μM;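 note: HEK293 cells co-expressing TRPA1 and TRPV1, fluorescence read at 488/514 nm after baseline subtraction, recorded every 2 s over 10 min, ionomycin 10 µM and buffer as controls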

T1 sequence (O75762 whole entry R3C/R58T/K186N): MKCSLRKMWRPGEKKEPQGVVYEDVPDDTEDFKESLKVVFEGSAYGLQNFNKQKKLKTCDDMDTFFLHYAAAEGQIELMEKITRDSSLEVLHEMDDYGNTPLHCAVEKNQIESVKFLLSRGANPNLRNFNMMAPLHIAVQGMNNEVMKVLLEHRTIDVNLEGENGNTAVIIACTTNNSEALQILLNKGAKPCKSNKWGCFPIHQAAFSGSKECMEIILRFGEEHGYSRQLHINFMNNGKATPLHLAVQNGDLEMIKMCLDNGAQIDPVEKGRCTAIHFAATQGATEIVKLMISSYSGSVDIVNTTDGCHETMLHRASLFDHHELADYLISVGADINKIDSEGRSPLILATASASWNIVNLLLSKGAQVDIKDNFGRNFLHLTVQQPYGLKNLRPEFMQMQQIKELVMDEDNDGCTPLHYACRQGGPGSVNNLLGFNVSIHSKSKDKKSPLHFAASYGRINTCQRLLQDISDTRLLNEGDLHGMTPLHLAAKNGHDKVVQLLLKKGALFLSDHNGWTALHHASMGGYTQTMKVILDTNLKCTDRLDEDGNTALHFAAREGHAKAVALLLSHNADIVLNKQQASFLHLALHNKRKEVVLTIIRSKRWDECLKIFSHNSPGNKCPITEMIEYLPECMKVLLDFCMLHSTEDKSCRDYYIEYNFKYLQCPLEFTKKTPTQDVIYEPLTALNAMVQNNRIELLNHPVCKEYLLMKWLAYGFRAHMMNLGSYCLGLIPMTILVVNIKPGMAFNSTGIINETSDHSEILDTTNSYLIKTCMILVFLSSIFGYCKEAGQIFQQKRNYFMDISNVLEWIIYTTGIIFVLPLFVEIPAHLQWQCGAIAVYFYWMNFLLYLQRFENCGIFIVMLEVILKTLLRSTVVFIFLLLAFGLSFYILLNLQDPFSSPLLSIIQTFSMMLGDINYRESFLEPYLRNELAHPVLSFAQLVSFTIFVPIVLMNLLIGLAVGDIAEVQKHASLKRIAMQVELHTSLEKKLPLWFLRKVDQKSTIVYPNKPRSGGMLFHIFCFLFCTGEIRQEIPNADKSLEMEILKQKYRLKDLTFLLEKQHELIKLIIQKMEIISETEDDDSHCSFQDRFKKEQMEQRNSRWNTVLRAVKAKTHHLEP

## CCOC(=O)c1ccccc1O [Ethyl salicylate]
Human TRPA1; Table 1(d)
  activation at 1000 µM: 41%
TRPA1V1; Table 1(d), 1 mM
  A1V1 activation, % of agonist value: 28%

## CCOc1cc(C2OCC(C)O2)ccc1O (stereo not drawn) [Ethyl vanillin propylene glycol acetal]
Human TRPA1; Table 1(c)
  A1 activation, % of agonist value: 66.41%
TRPA1V1; Table 1(c), 1 mM
  A1V1 activation, % of agonist value: 72.64%

## C=CC(=O)CC [Ethyl vinyl ketone]
Human TRPA1; Table 1(d)
  activation at 1000 µM: 79.5%
TRPA1V1; Table 1(d), 1 mM
  A1V1 activation, % of agonist value: 40.61%

## C=CCc1ccc(O)c(OC)c1 [Eugenol]
Human TRPA1; Table 1(c)
  activation at 1000 µM: 79%
TRPA1V1; Table 1(c), 1 mM
  A1V1 activation, % of agonist value: 91.29%

## C=CCc1ccc(OC(C)=O)c(OC)c1 [Eugenyl acetate]
Human TRPA1; Table 1(c)
  activation at 1000 µM: 75.4%
TRPA1V1; Table 1(c), 1 mM
  A1V1 activation, % of agonist value: 83.94%

## C=CCc1ccc(OC(=O)CC(C)C)c(OC)c1 [Eugenyl isovalerate]
Human TRPA1; Table 1(e)
  activation at 1000 µM: 59.7%
TRPA1V1; Table 1(e), 1 mM
  A1V1 activation, % of agonist value: 79.29%

## c1ccc(CCCC2CCCO2)cc1 (stereo not drawn) [Furan, tetrahydro-2-(3-phenylpropyl)-]
Human TRPA1; Table 1(e)
  activation at 1000 µM: 26%
TRPA1V1; Table 1(e), 1 mM
  A1V1 activation, % of agonist value: 72.09%

## CC(=O)OCc1ccco1 [Furfuryl acetate]
Human TRPA1; Table 1(d)
  activation at 1000 µM: 120%
TRPA1V1; Table 1(d), 1 mM
  A1V1 activation, % of agonist value: 91.3%

## CC(=O)SCc1ccco1 [Furfurylthiol acetate]
Human TRPA1; Table 1(d)
  A1 activation, % of agonist value: 75.5%
TRPA1V1; Table 1(d), 1 mM
  A1V1 activation, % of agonist value: 60%

## CCCCCCOC(=O)CCC [Hexyl butyrate]
Human TRPA1; Table 1(e)
  activation at 1000 µM: 43.2%
TRPA1V1; Table 1(e), 1 mM
  A1V1 activation, % of agonist value: 55.89%

## CCCCCCOC(=O)c1cccnc1 [Hexyl nicotinate]
Human TRPA1; Table 1(d)
  activation at 1000 µM: 72.9%
TRPA1V1; Table 1(d), 1 mM
  A1V1 activation, % of agonist value: 54.4%

## CC(=O)OCCC(C)C [Isoamyl acetate]
Human TRPA1; Table 1(c)
  activation at 1000 µM: 49.6%
TRPA1V1; Table 1(c), 1 mM
  A1V1 activation, % of agonist value: 61.80%

## CNc1ccccc1C(=O)OCC(C)C [Isobutyl N-methyl anthranilate]
Human TRPA1; Table 1(d)
  A1 activation, % of agonist value: 59.73%
TRPA1V1; Table 1(d), 1 mM
  A1V1 activation, % of agonist value: 36.7%

## CC=Cc1ccc(OC(C)=O)c(OC)c1 [Isoeugenyl acetate]
Human TRPA1; Table 1(c)
  activation at 1000 µM: 57.6%
TRPA1V1; Table 1(c), 1 mM
  A1V1 activation, % of agonist value: 68.34%

## CC=Cc1ccc(OC(=O)Cc2ccccc2)c(OC)c1 [Isoeugenyl phenylacetate]
Human TRPA1; Table 1(c)
  activation at 1000 µM: 59.1%
TRPA1V1; Table 1(c), 1 mM
  A1V1 activation, % of agonist value: 58.40%

## CC(C)N=C=S [Isopropyl isothiocyanate]
Human TRPA1; Table 1(e)
  activation at 1000 µM: 41.8%
TRPA1V1; Table 1(e), 1 mM
  A1V1 activation, % of agonist value: 71.6%

## CC(C)OC(=O)Cc1ccccc1 [Isopropyl phenylacetate]
Human TRPA1; Table 1(d)
  activation at 1000 µM: 80.2%
TRPA1V1; Table 1(d), 1 mM
  A1V1 activation, % of agonist value: 60.9%

## C=CCCCN=C=S [Isothiocyanic acid 4-penten-1-yl ester]
Human TRPA1; Table 1(c)
  activation at 100 µM: 51.6%
Human TRPA1; Table 1(e)
  activation at 1000 µM: 62.2%
TRPA1V1; Table 1(c), 100 μM (*)
  A1V1 activation, % of agonist value: 47.3%
TRPA1V1; Table 1(e), 1 mM
  A1V1 activation, % of agonist value: 74.8%

## CC(=O)O[C@@H]1C[C@H](C)CC[C@H]1C(C)C [L-Menthyl acetate]
Human TRPA1; Table 1(e)
  A1 activation, % of agonist value: 44.88%
TRPA1V1; Table 1(e), 1 mM
  A1V1 activation, % of agonist value: 60.47%

## C=C(C)[C@@H]1CC=C(C=O)CC1 [L-Perillaldehyde]
Human TRPA1; Table 1(c)
  A1 activation, % of agonist value: 127.7%
TRPA1V1; Table 1(c), 1 mM
  A1V1 activation, % of agonist value: 138.2%

## CC1=CC(=O)[C@@H](C(C)C)CC1 [L-Piperitone]
Human TRPA1; Table 1(e)
  A1 activation, % of agonist value: 45%
TRPA1V1; Table 1(e), 1 mM
  A1V1 activation, % of agonist value: 68.40%

## C=CC(C)(O)CCC=C(C)C (stereo not drawn) [Linalool]
Human TRPA1; Table 1(d)
  activation at 1000 µM: 52.6%
TRPA1V1; Table 1(d), 1 mM
  A1V1 activation, % of agonist value: 20%

## C=CC(C)(CCC=C(C)C)OC(=O)c1ccccc1 (stereo not drawn) [Linalyl benzoate]
Human TRPA1; Table 1(c)
  activation at 100 µM: 44.4%
TRPA1V1; Table 1(c), 100 μM (*)
  A1V1 activation, % of agonist value: 55.3%

## CCC(=O)Oc1c(C)occc1=O [Maltol propionate]
Human TRPA1; Table 1(c)
  A1 activation, % of agonist value: 85.04%
TRPA1V1; Table 1(c), 1 mM
  A1V1 activation, % of agonist value: 81.97%

## CC(C)=CCCC(C)C=O (stereo not drawn) [Melonal]
Human TRPA1; Table 1(c)
  A1 activation, % of agonist value: 52%
TRPA1V1; Table 1(c), 1 mM
  A1V1 activation, % of agonist value: 57%

## COC(=O)c1ccccc1OC [Methyl 2-methoxybenzoate]
Human TRPA1; Table 1(c)
  activation at 1000 µM: 71.2%
TRPA1V1; Table 1(c), 1 mM
  A1V1 activation, % of agonist value: 74.68%

## CSSc1ccoc1C [Methyl 2-methyl-3-furyl disulfide]
Human TRPA1; Table 1(c)
  activation at 1000 µM: 52.6%
TRPA1V1; Table 1(c), 1 mM
  A1V1 activation, % of agonist value: 52%

## CCCCCCC#CC(=O)OC [Methyl 2-nonynoate]
Human TRPA1; Table 1(d)
  activation at 1000 µM: 101%
TRPA1V1; Table 1(d), 1 mM
  A1V1 activation, % of agonist value: 76.1%

## COC(=O)CCCc1ccccc1 [Methyl 4-phenylbutyrate]
Human TRPA1; Table 1(c)
  activation at 1000 µM: 58.4%
TRPA1V1; Table 1(c), 1 mM
  A1V1 activation, % of agonist value: 50.30%

## CNc1ccccc1C(=O)OC [Methyl N-methylanthranilate]
Human TRPA1; Table 1(c)
  activation at 1000 µM: 83.6%
TRPA1V1; Table 1(c), 1 mM
  A1V1 activation, % of agonist value: 86.81%

## CCCCC/C=C\C/C=C\CCCCCCCC(=O)OC [Methyl linoleate]
Human TRPA1; Table 1(e)
  activation at 1000 µM: 31%
TRPA1V1; Table 1(e), 1 mM
  A1V1 activation, % of agonist value: 81.7%

## COC(=O)c1ccccc1NC=O [Methyl o-formamidobenzoate]
Human TRPA1; Table 1(c)
  activation at 1000 µM: 75.4%
TRPA1V1; Table 1(c), 1 mM
  A1V1 activation, % of agonist value: 75.64%

## COC(=O)c1ccc(OC)cc1 [Methyl p-anisate]
Human TRPA1; Table 1(c)
  activation at 1000 µM: 57.5%
TRPA1V1; Table 1(c), 1 mM
  A1V1 activation, % of agonist value: 66.24%

## C/C=C/C=C/C(=O)OC [Methyl sorbate]
Human TRPA1; Table 1(c)
  activation at 1000 µM: 76%
Human TRPA1; Table 1(e)
  activation at 1000 µM: 46.4%
TRPA1V1; Table 1(c), 1 mM
  A1V1 activation, % of agonist value: 81.15%
TRPA1V1; Table 1(e), 1 mM
  A1V1 activation, % of agonist value: 83.3%
